Experimental data: PubChem BioAssay (NCI)
Several values for one entry are separate records, joined by “and”; a condition that tells them apart may be missing. Equal entries are not always repeated.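 Assay format: 96-well plates, 48-hour exposure. At the GI50, growth is halved. TGI marks complete inhibition of growth.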

How the values were obtained:
Assay in all cases: NCI anticancer screen, dose series, 48 h
MCF7 breast = tested on: MCF7 breast
KM12 colon = tested on: KM12 colon
HL-60(TB) leukemia = tested on: HL-60(TB) leukemia
UACC-257 melanoma = tested on: UACC-257 melanoma
PC-3 prostate = tested on: PC-3 prostate
EKVX NSCLC = tested on: EKVX NSCLC
HS 578T breast = tested on: HS 578T breast
786-0 renal = tested on: 786-0 renal
TK-10 renal = tested on: TK-10 renal
RPMI-8226 leukemia = tested on: RPMI-8226 leukemia

Compound	TGI (MCF7 breast) [µM]	TGI (KM12 colon) [µM]	TGI (HL-60(TB) leukemia) [µM]	TGI (UACC-257 melanoma) [µM]	TGI (PC-3 prostate) [µM]	TGI (EKVX NSCLC) [µM]	TGI (HS 578T breast)	TGI (786-0 renal) [µM]	TGI (TK-10 renal) [µM]	TGI (RPMI-8226 leukemia) [µM]	GI50 (MCF7 breast) [µM]	GI50 (KM12 colon) [µM]	GI50 (HL-60(TB) leukemia) [µM]	GI50 (UACC-257 melanoma) [µM]	GI50 (PC-3 prostate) [µM]	GI50 (EKVX NSCLC) [µM]	GI50 (HS 578T breast) [µM]	GI50 (786-0 renal) [µM]	GI50 (TK-10 renal) [µM]	GI50 (RPMI-8226 leukemia) [µM]
COc1ccc(CCc2cc(OC)c(OC)c(OC)c2)cc1	> 100	5.77	0.296	47.7	> 62.6	70	> 100 µM	69.1	> 97.9	17.1										
OCNCCNc1nc2ccccc2c2[nH]c3ccccc3c12	4.5	7.37	3.93	5.71	2.11	3.25	3.87 µM	2.35	9.89	2.01	1.24	1.54	1.31	1.64	0.879	1.18	1.46	0.34	1.76	0.84
CC(NC(=O)c1ccccc1)(C(=O)O)C(=O)O	> 100	> 100	> 100	> 100	> 100	> 100	> 100 µM	> 100	> 100	> 100										
O=c1c2ccccc2oc2ccc(OCCCCCCN3CCCCCC3)cc12	5.53	11.5	3.97	5.28	13.2	13.9	36.7 µM	4.35	17.3	5.78	1.91	3.2	1.84	2.52	3.17	2.88	7.5	1.9	3.94	2.24
COC(=O)c1c(C)nc(C)c(NO)c1-c1ccccc1C(F)(F)F	39.2	> 100	> 100	42.8	> 100	> 100	> 100 µM	30.2	37.4	70.6										
S=C(NCc1ccccc1)N/N=C/c1ccccn1	> 100	> 100	0.183	> 100	> 100	> 100	> 100 µM	> 65.3	> 100	2.33										
Nc1ccc2c(c1)c(N)nn2C(=O)Nc1ccc(Cc2ccccc2)cc1	26.5	15.1	17.2	29.7	24	36.7	43 µM	25.9	46	35	6.92	3.34	3.46	14.5	4.33	14	17.3	12.4	19.4	5.14
COc1cnc2cc(C(=O)O)c3ccccc3c2c1	> 100	> 100	> 100	> 100	> 100	> 100	> 100 µM	> 100	> 100	> 100										
Cc1nc(N)nc2ccccc12	> 100	> 100	> 100	> 100	> 100	> 100	> 100 µM	> 100	> 100	> 100										
CO[C@@]12[C@@H]3NC3CN1C1=C(C(=O)C(N)=C(C)C1=O)[C@@H]2COC(N)=O (some centres undefined)	7.55	7.22	7.43	2.14	37.1	20.2	> 100 µM	2.77	5.85	27.8	0.0809	1.22	0.0862		2.02	3.09	6.32		1.68	1.84
CCOC(=O)C(=O)C(=O)NN(C)C1=NCCN1	> 100	> 100	> 100	> 100	> 100	> 100	> 100 µM	> 100	> 100	> 100										
CCOc1cc(-c2ccc[nH]2)[nH]c1/C=C1\N=C(C)C(C(=O)OC)=C1C	0.467	1.35	1.69	0.939	2.13	2.3	0.58 µM	0.259	1.5	0.0898	0.0369	0.0251	0.0235	0.0551	0.0357	0.235	0.0475	0.0329	0.0579	0.0216
CC1COCC(C)N1C1=C(Cl)C(=O)c2ccccc2C1=O (centres undefined)	3.76	25.4	5.03	3.08	17.8	2.87	50.5 µM	13.5	26.2	5.68	1.67	12.4	2.02	1.6	3.92	1.42	6.38	3.67	13	2.04
CC1OC2OC3C(OCC(O)C3O)OC(=O)[C@]34CCC(C)(C)CC3C3=CCC5[C@@]6(C)C[C@H](O)[C@H](OC7OC(CO)C(O)C(O)C7OC7OCC(OC(=O)CC(C)(O)CC(=O)OC1C(OC1OC(CO)C(O)C(O)C1O)C2O)C(O)C7O)[C@@](C)(CO)C6CC[C@@]5(C)[C@]3(C)CC4 (some centres undefined)	23.6	19.3	6.29	12.7	16.9		30.1 µM	15.5	21.1	25.2										
COc1ccc(C(O)CC(O)(C(F)(F)F)C(F)(F)F)cc1 (centres undefined)	> 100	> 100	37	51.8	55.7	> 100	61.7 µM	> 100	> 100	57.2										
Nc1ccc(S(=O)(=O)Nc2cnc3c(Cl)cccc3n2)cc1	> 721	709	637	> 750	> 750	712	> 79.5 µM and 504 µM	> 750	589	> 705	45.3	99.6	> 75	> 89.3	> 63.9		16.3		> 84.7	> 95.1

Compound	TGI (MCF7 breast) [µM]	TGI (KM12 colon) [µM]	TGI (HL-60(TB) leukemia) [µM]	TGI (UACC-257 melanoma) [µM]	TGI (PC-3 prostate) [µM]	TGI (EKVX NSCLC) [µM]	TGI (HS 578T breast)	TGI (786-0 renal) [µM]	TGI (TK-10 renal) [µM]	TGI (RPMI-8226 leukemia) [µM]	GI50 (MCF7 breast) [µM]	GI50 (KM12 colon) [µM]	GI50 (HL-60(TB) leukemia) [µM]	GI50 (UACC-257 melanoma) [µM]	GI50 (PC-3 prostate) [µM]	GI50 (EKVX NSCLC) [µM]	GI50 (HS 578T breast) [µM]	GI50 (786-0 renal) [µM]	GI50 (TK-10 renal) [µM]	GI50 (RPMI-8226 leukemia) [µM]
NS(=O)(=O)c1ccc(NNc2c3ccccc3nc3c(C(=O)Nc4ccc(S(=O)(=O)Nc5ncccn5)cc4)cccc23)cc1	> 25	> 25	> 25	> 25	> 25	> 25	> 25 µM	> 25	> 25	> 25										
COc1cc(/C=C(\C#N)C(N)=C(C#N)C#N)cc(O)c1O	> 100	> 100	> 81.5	> 100	> 100	> 100	> 100 µM	> 100	> 100	> 100										
Cc1cc(Cl)ccc1Nc1nc(C(F)(F)F)ccc1C(=O)N1CCN(c2cccc(Cl)c2)CC1	> 100	> 100	> 100	> 100	> 100	> 100	> 100 µM	> 100	> 100	> 100	25.6	> 100	69.6	> 100	7.56	> 100	3.89	> 100	> 100	37.2
COc1cc(NC(=O)Nc2cnc(Nc3ccc(N4CCOCC4)cc3)nc2Oc2cccc(OC)c2)cc(OC)c1	18.8	22.5	> 50	16.8	23.7	24.5	20.6 µM	1.88	2.85		1.92	2.19	2.76	3.36	3.16	2.17	1.97	0.928	1.11	
CSC1=NCC2(S1)c1ccccc1N(C(=O)OC(C)(C)C)C2N1CCCCC1 (centres undefined)	> 100	> 100	> 100	> 100	> 100	> 100	> 100 µM	> 100	> 100	> 100	> 100	> 100	63.7	> 100	34.7	> 100	81.8	16.2	> 100	> 100
Nc1[nH]c(=O)ncc1CO	> 100	> 100	> 100	> 100	> 100		> 100 µM	> 100	> 100	> 100	> 100	> 100	> 100	> 100	> 100		> 100	> 100	> 100	> 100
O=C(Nc1ccccc1C(=O)N/N=C(\c1ccccc1)c1ccccn1)c1ccc(F)cc1	> 100	> 100	2.01	> 100	> 100	> 100	> 100 µM	8.44	> 100	> 100	0.308	0.421	0.297	0.793	0.792	0.169	6.48	0.281	0.408	0.51
Oc1ccc(Cl)cc1Cc1cc(Cl)ccc1O	10.2	11.1	6.05	5.39	11.6	8.84	7.35 µM	14.3	11.3	5.1	2.97	3.06	2.42	1.87	3.17	2.65	1.91	3.85	3.65	1.53
CN1CCN(c2nc(-c3ccncc3)nc3sc4c(c23)CCCCCC4)CC1	20.4	28	29.8	23	18.2		13.9 µM	20.2	20.5	26.9	6.61	13.4	12.6	10.6	4.71		2.3	4.77	6.71	8.39
O=c1[nH]c2ccccc2n1-c1n[nH]c2ccccc12	> 100	> 100	43.2	> 100	> 100	> 100	> 100 µM	> 100	> 100	64.6	20.1	3.21	12.1	42.1	18.1	29.7	23	46.6	40.7	17.6
CSc1ccc(C(=O)C(=O)c2ccc(SC)s2)s1	> 10	> 10	> 10	> 10	> 10	> 10	> 10 µM	> 10	> 10	> 10										
C(/Cc1ccc2c(c1)OCO2)=N\NC1=NCCCN1	> 100	> 100	> 100	> 100	> 100	> 100	> 100 µM	> 100	> 100	> 100										
CS(=O)(=O)NC12CCC(c3ccccc31)c1ccccc12	> 100	> 100	> 100		> 100	> 100	> 100 µM	> 100	> 100	> 100										
N#CC1C=Cc2ccccc2N1C(=O)Oc1ccccc1 (centres undefined)	> 100	> 100	48.6	> 100	> 100	> 100	> 100 µM	> 100	> 100	61.3										
C/C=C1\C(=O)OC2CCN3CCC(COC(=O)C(C)(O)C(C)C1O)C23 (centres undefined)	> 100	> 100	> 100	> 100	> 100	> 100	> 100 µM	> 100	> 100											
O=C(Cc1csc2nc(-c3ccc(Br)cc3)cn12)N/N=C/c1ccc(O)cc1	> 100	76.7		7.72	23.7	65.9	92.3 µM	89	33.4	40.2	62.7	17.6		1.52		11.5	23.7	26.1	9.79	4.29
